From patent publication US7259236B2, “RBP1L1, a novel retinoblastoma binding protein-related gene encoding an antigenic epitope and methods of using thereof” (Regents of the University of California, priority 2001, dated 2007)

Tests used:
[1] = test system: purified specific IgG binding to GST-RBP1L1 fusion protein; assay: Inhibition by synthetic peptides of purified specific IgG binding to GST-RBP1L1 fusion protein (Western blot); parameters: species or system human; details: peptide 5 μg/ml, purified specific IgG 0.5 μg/ml, fusion protein from clone 151
Experimental: To determine the minimal number of amino acids necessary for antibody binding, synthetic peptides of various lengths were tested for their ability to inhibit the binding of purified specific IgG to GST-RBP1L1 fusion protein by Western blot analysis. The synthetic peptides tested were:
[…] The antigen and purified IgG mixture was agitated at 4° C. overnight, and the inhibition of antibody binding was assessed by Western blotting using GST-RBP1L1 fusion protein as the target antigen.
The minimum number of amino acids required for the antibody binding was determined by testing various truncated synthetic peptides in ELISAs and on Western blots. The following set of peptides was generated by sequentially reducing the 10-amino acid peptide by one amino acid from either the amino terminus or the carboxyl terminus:
(§1) The wells of a 96-well ELISA plate were coated with 100 μl of a peptide (5 μg/ml). The specific human IgG (200 μg/ml) was serially diluted from 1:250 to 1:4,000.

purified specific IgG = assay: ELISA with synthetic peptide antigens; format: binding, human; details: ELISA and Western blot, truncated synthetic peptides; plate coated with 5 μg/ml peptide, IgG 200 μg/ml diluted 1:250 to 1:4,000
Experimental: The binding of purified specific IgG to synthetic peptides was assessed by ELISA. 96-well polystyrene plates (Reacti-Bind maleic anhydride-activated plates, Pierce) coated with each of the peptides (100 μl of 5 μg/ml) in PBS, incubated overnight at 4° C., and then blocked with 1% bovine serum albumin. Purified specific IgG (200 μg/ml) was serially diluted 1:250, 1:500, 1:1000, 1:2000, and 1:4000, then added in triplicate to peptide-coated wells (500 ng per well), and incubated for 3 hours at room temperature. Peroxidase-conjugated goat anti-human IgG (Pierce) was added at room temperature for 1 hour, followed by the addition of 400 μg/ml of o-phenylenediamine dihydrochloride in peroxide substrate solution. Reactivity was measured at 490 nm. Background absorbance without the primary antibody was subtracted from each sample's absorbance.
as §1

| Sequence | ability to competitively inhibit the binding of purified specific IgG to the GST-RBP1L1 fusion protein [1] | epitope recognized by the purified specific human IgG (purified specific IgG) |
| --- | --- | --- |
| IKPSLGSKKN (listed as Homo sapiens) | completely inhibited | – |
| IKPSLGSKK (listed as Homo sapiens) | completely inhibited | minimal epitope recognized |
